Results from patent publication US20260139254A1, “INTERFERING RNA FOR INHIBITING TOP1 GENE EXPRESSION AND USE THEREOF” (JENKEM TECHNOLOGY CO., LTD. (BEIJING), priority 2022, published 2026).

How the values were obtained:
Format in all cases: cell-based, human
A375 melanoma cells = experiment: Inhibition of A375 cell proliferation by siTOP1 (CCK-8); conditions: A375, siRNA 50 nM, 72 h
Description: • 1) On the day before transfection, A375 melanoma cells were seeded into a 96-well plate at 2500-3000 cells/well, the culture medium being a total volume of 200 μL of DMEM culture medium containing 7.5% FBS and 1% Penicillin-Streptomycin, and the plate was placed in an incubator with 5% CO2 at 37° C. for 24 h to allow the cells to adhere to the wall. 5 replicate wells were made for each group. • 2) On the day of transfection, the culture medium was changed to 90 μL of reduced serum culture medium without antibiotics and containing 7.5% FBS. • 3) The siRNAs were diluted with an appropriate amount of Opti-MEM culture medium; Lipofectamine™ RNAiMAX (Lipo) transfection reagent was diluted with another appropriate amount of Opti-MEM culture medium and left to stand at room temperature for 5 min; and the two dilutions were uniformly mixed and left to stand at room temperature for 5 min. • 4) 10 μL of the mixed solution described above was added to each well to obtain a final transfection volume of 100 μL, and the working concentration of the siRNA was 50 nM. • 5) The cells were cultured in the incubator with 5% CO2 at 37° C. for 72 h.
After 72 h of transfection, 10 μL of CCK-8 solution was added to each well, and the cells were cultured in the incubator with 5% CO2 at 37° C. for another 4 h. The absorbance value at 450 nm was measured using a microplate reader. Cell viability was calculated according to the following formula: […]

TOP1 mRNA [1] = experiment: Inhibitory effect of siTOP1 on TOP1 mRNA in A375 cells (Lipofectamine RNAiMAX transfection, Q-PCR); conditions: A375, siRNA 50 nM, 48 h after transfection
Description: • 1) On the day before transfection, A375 melanoma cells were seeded into a 24-well plate at 6×10^4 to 8×10^4 cells/well, the culture medium being 500 μL of DMEM containing 10% FBS and 1% Penicillin-Streptomycin, and the plate was placed in an incubator with 5% CO2 at 37° C. for 24 h to allow the cells to adhere to the wall. Three replicate wells were made for each group. • 2) On the day of transfection, the culture medium was changed to 450 μL of DMEM culture medium without antibiotics (containing 10% FBS). • 3) The siRNAs were diluted with 25 μL of Opti-MEM culture medium; the siNC (the siNC (reference: O Sordet et al., 2008) having the target sequence of 5′-TTCTCCGAACGTGTCACGT-3′ (SEQ ID NO: 46)) at the same concentration was the negative control group; Lipofectamine™ RNAiMAX (Lipo) transfection reagent was diluted with another 25 μL of Opti-MEM culture medium and left to stand at room temperature for 5 min; and the two dilutions were uniformly mixed and left to stand at room temperature for 5 min. • 4) 50 μL of the mixed solution described above was added to each well to obtain a final transfection volume of 500 μL. and the working concentration of the siRNA was 50 nM. • 5) After the transfection, the cells were cultured for 48 h and then collected.
• 1) RNA was extracted using an Eastep™ Super total RNA extraction kit; 300 μL of RNA lysis solution and 300 μL of RNA diluent were added; and the mixture was uniformly mixed and then transferred to a 1.5 mL centrifuge tube. • 2) The mixture was centrifuged at 14000 g for 5 min, and the supernatant was carefully pipetted into a new 1.5 mL centrifuge tube. • 3) A 0.5-fold volume of absolute ethanol was added, and the mixture was uniformly mixed by allowing the tube to be repeatedly upside down 15-20 times. Subsequently, the mixture was transferred to a centrifuge column and centrifuged at 12000 g for 1 min. The filtrate was discarded. • 4) 600 μL of RNA wash buffer was added, and the mixture was centrifuged at 12000 g for 1 min. The filtrate was discarded. • 5) 50 μL of DNase I incubation buffer was added, followed by DNA digestion at room temperature for 15 min. • 6) 600 μL of RNA wash buffer was added, the mixture was centrifuged at 12000 g for 1 min, and the filtrate was discarded. This procedure was repeated once. • 7) The mixture was centrifuged at 14000 g for 2 min to remove the residual RNA wash buffer, and then the centrifuge column was placed in a collection tube. • 8) An appropriate amount of RNase-free H2O was added, and the mixture was left to stand at room temperature for 12 min and centrifuged at 14000 g for 1 min. The collected RNA was preserved at −70° C. for later use.
• 1) The mass and concentration of the RNA were detected using NanoDrop™, and an RNA template was prepared as follows: RNase-free H2O was added to 1 μg of RNA to a volume of 10 μL; the mixture was placed at 70° C. for 5 min and then placed in an ice bath for 5 min for later use. • 2) A reaction system was established according to Table 2:
• 3) The reaction system described above was uniformly mixed and centrifuged to collect the liquid at the bottom of a tube, and the mixture was subjected to the procedures of 25° C. for 5 min, 42° C. for 60 min, and 72° C. for 15 min, thereby giving the cDNA product. • 4) A Q-PCR system was prepared according to Table 3, and the level of TOP1 gene was detected:
GAPDH was used as an endogenous reference, and the sequences of the primers used for detection are as follows: […]

TOP1 mRNA [2] = experiment: Inhibitory effects of modified sequences of siTOP1-1604 on TOP1 mRNA in PC-3 cells; conditions: PC-3, siRNA 50 nM, 48 h after transfection, Blank = 100.00
Description: PC-3 human prostate cancer cells were transfected with the modified siTOP1 according to the method in Example 2 at a siRNA working concentration of 50 nM. TOP1 mRNA levels were detected 48 h after the transfection. The control groups were Blank (Opti-MEM at the equal volume), Lipofectamine™ RNAiMAX (Lipo) transfection reagent, and the positive control unmodified siTOP-1604.

## siTOP1-1604: siRNA targeting TOP1; target SEQ ID NO: 9, sense strand SEQ ID NO: 24, antisense strand SEQ ID NO: 39 (sense GUGUGGACAAGAUCCGGAAUU; antisense UUCCGGAUCUUGUCCACACUU; described as unmodified parent siRNA, further chemistry not given here)
A375 melanoma cells
  Cell viability (%), mean value: 41.65%
  Inhibition of A375 cell proliferation compared to Blank: about 58%
TOP1 mRNA [1]
  Inhibition of TOP1 expression: 94.0%
TOP1 mRNA [1]; Blank = 100.00, GAPDH reference
  Relative expression level of gene, mean value: 5.97
TOP1 mRNA [2]
  Relative expression level, mean value: 4.03
